PubChem BioAssay AID1918941 (Molecular Pharmacology Branch, DTP, NCI, 2023)

Tested on: SW 1271 complex spheroids, viability
Assay: Anticancer human tumor SW 1271 cell line growth inhibition [LSD1];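 also: spheroids exposed to agents for 7 days before luminescence read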;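 as to viability, T/C: 100% = DMSO vehicle control viability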
Settings: for IC50: curve of first compound; for viability, T/C: stronger effect = lower value; active = viability on the fitted dose curve at most 10% of control; inactive = the rest
In short: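 Complex spheroids of tumor cells with HUVEC and human MSCs, exposed to iadademstat combined with other agents. Each agent tested in half-log steps from near clinical Cmax (else 10 microM top), DMSO ≤0.25%.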

[1] = second compound 0.1 µM, first compound 0.0316 µM
[2] = second compound 0.1 µM, first compound 0.1 µM
[3] = second compound 0.316 µM, first compound 0.0316 µM
[4] = second compound 0.316 µM, first compound 0.1 µM
[5] = second compound 1 µM, first compound 0.0316 µM
[6] = second compound 1 µM, first compound 0.1 µM
[7] = second compound 3.16 µM, first compound 0.0316 µM
[8] = second compound 3.16 µM, first compound 0.1 µM
[9] = second compound 10 µM, first compound 0.0316 µM
[10] = second compound 10 µM, first compound 0.1 µM
[11] = second compound 0.1 µM, first compound 0.000949 µM
[12] = second compound 0.1 µM, first compound 0.003 µM
[13] = second compound 0.1 µM, first compound 0.00949 µM
[14] = second compound 0.1 µM, first compound 0.03 µM
[15] = second compound 0.1 µM, first compound 0.0949 µM
[16] = second compound 0.1 µM, first compound 0.3 µM
[17] = second compound 0.316 µM, first compound 0.000949 µM
[18] = second compound 0.316 µM, first compound 0.003 µM
[19] = second compound 0.316 µM, first compound 0.00949 µM
[20] = second compound 0.316 µM, first compound 0.03 µM
[21] = second compound 0.316 µM, first compound 0.0949 µM
[22] = second compound 0.316 µM, first compound 0.3 µM
[23] = second compound 1 µM, first compound 0.000949 µM
[24] = second compound 1 µM, first compound 0.003 µM
[25] = second compound 1 µM, first compound 0.00949 µM
[26] = second compound 1 µM, first compound 0.03 µM
[27] = second compound 1 µM, first compound 0.0949 µM
[28] = second compound 1 µM, first compound 0.3 µM
[29] = second compound 3.16 µM, first compound 0.000949 µM
[30] = second compound 3.16 µM, first compound 0.003 µM
[31] = second compound 3.16 µM, first compound 0.00949 µM
[32] = second compound 3.16 µM, first compound 0.03 µM
[33] = second compound 3.16 µM, first compound 0.0949 µM
[34] = second compound 3.16 µM, first compound 0.3 µM
[35] = second compound 10 µM, first compound 0.000949 µM
[36] = second compound 10 µM, first compound 0.003 µM
[37] = second compound 10 µM, first compound 0.00949 µM
[38] = second compound 10 µM, first compound 0.03 µM
[39] = second compound 10 µM, first compound 0.0949 µM
[40] = second compound 10 µM, first compound 0.3 µM

CC[C@@]1(O)C(=O)OCc2c1cc1n(c2=O)Cc2cc3c(CN(C)C)c(O)ccc3nc2-1 + NC1CCC(NC2CC2c2ccccc2)CC1
71.6 nM: IC50 (second compound 3.16 µM)
inactive: viability, T/C (second compound 0.1 µM, first compound 0.000316 µM) 89.2% | viability, T/C (second compound 0.1 µM, first compound 0.001 µM) 93.8% | viability, T/C (second compound 0.1 µM, first compound 0.00316 µM) 78.8% | viability, T/C (second compound 0.1 µM, first compound 0.01 µM) 63% | viability, T/C [1] 58% | viability, T/C [2] 56.4% | viability, T/C (second compound 0.316 µM, first compound 0.000316 µM) 90% | viability, T/C (second compound 0.316 µM, first compound 0.001 µM) 74.2% | viability, T/C (second compound 0.316 µM, first compound 0.00316 µM) 71.6% | viability, T/C (second compound 0.316 µM, first compound 0.01 µM) 72.5% | viability, T/C [3] 62% | viability, T/C [4] 58.9% | viability, T/C (second compound 1 µM, first compound 0.000316 µM) 73.4% | viability, T/C (second compound 1 µM, first compound 0.001 µM) 94.5% | viability, T/C (second compound 1 µM, first compound 0.00316 µM) 80.1% | viability, T/C (second compound 1 µM, first compound 0.01 µM) 66.7% | viability, T/C [5] 59% | viability, T/C [6] 45.4% | viability, T/C (second compound 3.16 µM, first compound 0.000316 µM) 95.9% | viability, T/C (second compound 3.16 µM, first compound 0.001 µM) 78.2% | viability, T/C (second compound 3.16 µM, first compound 0.00316 µM) 72.9% | viability, T/C (second compound 3.16 µM, first compound 0.01 µM) 68.3% | viability, T/C [7] 49.7% | viability, T/C [8] 49.6% | viability, T/C (second compound 10 µM, first compound 0.000316 µM) 88.3% | viability, T/C (second compound 10 µM, first compound 0.001 µM) 84.2% | viability, T/C (second compound 10 µM, first compound 0.00316 µM) 78.2% | viability, T/C (second compound 10 µM, first compound 0.01 µM) 60.3% | viability, T/C [9] 57.5% | viability, T/C [10] 52.2%
66.1 nM: IC50 (second compound 1 µM)
> 100 nM: IC50 (second compound 0.1 µM) | IC50 (second compound 0.316 µM) | IC50 (second compound 10 µM)

CCc1c2c(nc3ccc(O)cc13)-c1cc3c(c(=O)n1C2)COC(=O)[C@]3(O)CC + NC1CCC(NC2CC2c2ccccc2)CC1
3.54 nM: IC50 (second compound 0.1 µM) | IC50 (second compound 1 µM)
2.36 nM: IC50 (second compound 3.16 µM)
1.7 nM: IC50 (second compound 0.316 µM)
active: viability, T/C [14] 8.08% | viability, T/C [15] 5.77% | viability, T/C [16] 5.6% | viability, T/C [21] 8.55% | viability, T/C [22] 3.31% | viability, T/C [26] 8.11% | viability, T/C [27] 5.83% | viability, T/C [28] 3.46% | viability, T/C [38] 7.16% | viability, T/C [39] 5.27% | viability, T/C [40] 3.36%
1.83 nM: IC50 (second compound 10 µM)
inactive: viability, T/C [11] 59.3% | viability, T/C [12] 53.9% | viability, T/C [13] 26.8% | viability, T/C [17] 57.5% | viability, T/C [18] 42.2% | viability, T/C [19] 26% | viability, T/C [20] 9.7% | viability, T/C [23] 56.9% | viability, T/C [24] 52.8% | viability, T/C [25] 31.5% | viability, T/C [29] 57.8% | viability, T/C [30] 46.5% | viability, T/C [31] 26.4% | viability, T/C [32] 7.18% | viability, T/C [33] 5.59% | viability, T/C [34] 19.2% | viability, T/C [35] 52.4% | viability, T/C [36] 48% | viability, T/C [37] 27.9%

Nc1ccccc1NC(=O)c1ccc(CNC(=O)OCc2cccnc2)cc1 + NC1CCC(NC2CC2c2ccccc2)CC1
active: viability, T/C (second compound 0.1 µM, first compound 3 µM) 5.83% | viability, T/C (second compound 0.316 µM, first compound 3 µM) 5.39% | viability, T/C (second compound 1 µM, first compound 3 µM) 8.95% | viability, T/C (second compound 3.16 µM, first compound 3 µM) 4.3% | viability, T/C (second compound 10 µM, first compound 3 µM) 7.03%
158 nM: IC50 (second compound 0.1 µM)
153 nM: IC50 (second compound 1 µM)
150 nM: IC50 (second compound 0.316 µM)
147 nM: IC50 (second compound 10 µM)
152 nM: IC50 (second compound 3.16 µM)
inactive: viability, T/C [13] 89.1% | viability, T/C [14] 78.6% | viability, T/C [15] 64.7% | viability, T/C [16] 33.4% | viability, T/C (second compound 0.1 µM, first compound 0.949 µM) 10.5% | viability, T/C [19] 93.6% | viability, T/C [20] 69.4% | viability, T/C [21] 68% | viability, T/C [22] 31.2% | viability, T/C (second compound 0.316 µM, first compound 0.949 µM) 8.46% | viability, T/C [25] 101% | viability, T/C [26] 73.5% | viability, T/C [27] 67.8% | viability, T/C [28] 35.9% | viability, T/C (second compound 1 µM, first compound 0.949 µM) 7.27% | viability, T/C [31] 95.5% | viability, T/C [32] 85.1% | viability, T/C [33] 62.3% | viability, T/C [34] 32.9% | viability, T/C (second compound 3.16 µM, first compound 0.949 µM) 10.5% | viability, T/C [37] 95.8% | viability, T/C [38] 92.6% | viability, T/C [39] 61.6% | viability, T/C [40] 29.2% | viability, T/C (second compound 10 µM, first compound 0.949 µM) 11.2%

Nc1ccn(C2OC(CO)C(O)C2(F)F)c(=O)n1 (stereo not given) + NC1CCC(NC2CC2c2ccccc2)CC1
inactive: viability, T/C [11] 83.3% | viability, T/C [12] 69.4% | viability, T/C [13] 62.5% | viability, T/C [14] 59.5% | viability, T/C [15] 69.3% | viability, T/C [16] 71.4% | viability, T/C [17] 73.8% | viability, T/C [18] 71.2% | viability, T/C [19] 76.2% | viability, T/C [20] 61.3% | viability, T/C [21] 62.7% | viability, T/C [22] 59.6% | viability, T/C [23] 80.7% | viability, T/C [24] 64.6% | viability, T/C [25] 59.8% | viability, T/C [26] 66.3% | viability, T/C [27] 56.1% | viability, T/C [28] 59.4% | viability, T/C [29] 67.5% | viability, T/C [30] 68.4% | viability, T/C [31] 84.5% | viability, T/C [32] 59.8% | viability, T/C [33] 60.5% | viability, T/C [34] 63% | viability, T/C [35] 83.7% | viability, T/C [36] 64.3% | viability, T/C [37] 62.5% | viability, T/C [38] 68.6% | viability, T/C [39] 60.7% | viability, T/C [40] 64.9%
> 300 nM: IC50 (second compound 0.1 µM) | IC50 (second compound 0.316 µM) | IC50 (second compound 1 µM) | IC50 (second compound 3.16 µM) | IC50 (second compound 10 µM)

O=C(c1cc(Cc2n[nH]c(=O)c3ccccc23)ccc1F)N1CCN(C(=O)C2CC2)CC1 + NC1CCC(NC2CC2c2ccccc2)CC1
> 10000 nM: IC50 (second compound 0.1 µM) | IC50 (second compound 0.316 µM) | IC50 (second compound 1 µM) | IC50 (second compound 3.16 µM) | IC50 (second compound 10 µM)
inactive: viability, T/C [1] 82% | viability, T/C [2] 104% | viability, T/C (second compound 0.1 µM, first compound 0.316 µM) 95.3% | viability, T/C (second compound 0.1 µM, first compound 1 µM) 86.2% | viability, T/C (second compound 0.1 µM, first compound 3.16 µM) 82.6% | viability, T/C (second compound 0.1 µM, first compound 10 µM) 71.2% | viability, T/C [3] 85.7% | viability, T/C [4] 91.9% | viability, T/C (second compound 0.316 µM, first compound 0.316 µM) 97.3% | viability, T/C (second compound 0.316 µM, first compound 1 µM) 87.7% | viability, T/C (second compound 0.316 µM, first compound 3.16 µM) 81.9% | viability, T/C (second compound 0.316 µM, first compound 10 µM) 63.8% | viability, T/C [5] 82.7% | viability, T/C [6] 105% | viability, T/C (second compound 1 µM, first compound 0.316 µM) 91.5% | viability, T/C (second compound 1 µM, first compound 1 µM) 96.6% | viability, T/C (second compound 1 µM, first compound 3.16 µM) 79.8% | viability, T/C (second compound 1 µM, first compound 10 µM) 71.9% | viability, T/C [7] 81.6% | viability, T/C [8] 94.7% | viability, T/C (second compound 3.16 µM, first compound 0.316 µM) 101% | viability, T/C (second compound 3.16 µM, first compound 1 µM) 83.4% | viability, T/C (second compound 3.16 µM, first compound 3.16 µM) 84% | viability, T/C (second compound 3.16 µM, first compound 10 µM) 76.6% | viability, T/C [9] 93.8% | viability, T/C [10] 95.9% | viability, T/C (second compound 10 µM, first compound 0.316 µM) 94.5% | viability, T/C (second compound 10 µM, first compound 1 µM) 84.2% | viability, T/C (second compound 10 µM, first compound 3.16 µM) 78.1% | viability, T/C (second compound 10 µM, first compound 10 µM) 66.9%
